Assays:
[1] = tested on: HUVECs (Human umbilical vein endothelial cells); experiment: Inhibitory effects on HUVEC tube formation; assay type: cell-based; conditions: for inhibitory effect on HUVEC tube formation: 50 uM; for Tube formation: 50 μM;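 for tube formation: from minus no inhibition up to plus-plus-plus complete inhibition versus vehicle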
Procedure: The Inhibitory effects of the compounds of the formula 1 on angiogenesis were meassured by the vascular tube formation assay of HUVECs (Human umbilical vein endothelial cells), which is one of the major angiogenic steps.
HUVECs were isolated from human umbilical vein, and cultured. HUVECs within passage 5 from confluent cultures were detached, and plated onto a layer of a bFGF (basic fibroblast growth factor)-reduced and polymerized Matrigel. Matrigel cultures were incubated with or without the compounds of formula 1, and the changes of cell morphology were captured through a phase contrast microscope and photographed.

[2] = tested on: SPF SD rats; conditions: rat, in vivo, po;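 note: Six-week-old animals, two per group, followed across an observation period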

| SMILES | inhibitory effect on HUVEC tube formation [1] | Tube formation [1] | clinical symptoms, body weight and mortality [2] |
| --- | --- | --- | --- |
| COC(OC)[C@]1(C)Oc2ccc([N+](=O)[O-])cc2[C@H](N(Cc2ncc[nH]2)c2ccc(Cl)cc2)[C@H]1O [Example 3, (2R,3R,4S)-3,4-dihydro-2-dimethoxymethyl-3-hydroxy-2-methyl-6-nitro-4-[N-(4-chlorophenyl)-N-(1H-imidazol-2-ylmethyl)amino]-2H-1-benzopyran] | strongly inhibited | ++ | no significant changes |
| COc1ccccc1N(Cc1ncc[nH]1)[C@@H]1c2cc(N)ccc2O[C@](C)(C(OC)OC)[C@H]1O [Example 31, (2S,3S,4R)-6-amino-3,4-dihydro-2-dimethoxymethyl-3-hydroxy-2-methyl-4-[N-(2-methoxyphenyl)-N-(1H-imidazol-2-ylmethyl)amino]-2H-1-benzopyran] | – | – | no significant changes |
| COC(OC)[C@@]1(C)Oc2ccc([N+](=O)[O-])cc2[C@@H](N(Cc2ncc[nH]2)c2ccc(OC(F)(F)F)cc2)[C@@H]1O [Example 7, (2S,3S,4R)-3,4-dihydro-2-dimethoxymethyl-3-hydroxy-2-methyl-6-nitro-4-[N-(4-trifluoromethoxyphenyl)-N-(1H-imidazol-2-ylmethyl)amino]-2H-1-benzopyran] | – | + | no significant changes |
| COC(OC)[C@@]1(C)Oc2ccc([N+](=O)[O-])cc2[C@@H](N(Cc2ncc[nH]2)c2ccc(C(F)(F)F)cc2)[C@@H]1O [Example 5, (2S,3S,4R)-3,4-dihydro-2-dimethoxymethyl-3-hydroxy-2-methyl-6-nitro-4-[N-(4-trifluoromethylphenyl)-N-(1H-imidazol-2-ylmethyl)amino]-2H-1-benzopyran] | strongly inhibited | ++ | no significant changes |
| COC(OC)[C@]1(C)Oc2ccc([N+](=O)[O-])cc2[C@H](N(Cc2ncc[nH]2)c2ccc(Br)cc2)[C@H]1O [Example 13, (2R,3R,4S)-3,4-dihydro-2-dimethoxymethyl-3-hydroxy-2-methyl-6-nitro-4-[N-(4-bromophenyl)-N-(1H-imidazol-2-ylmethyl)amino]-2H-1-benzopyran] | – | + | no significant changes |
| COC(OC)[C@]1(C)Oc2ccc([N+](=O)[O-])cc2[C@H](N(Cc2ncc[nH]2)c2cccc(Cl)c2)[C@H]1O [Example 19, (2R,3R,4S)-3,4-dihydro-2-dimethoxymethyl-3-hydroxy-2-methyl-6-nitro-4-[N-(3-chlorophenyl)-N-(1H-imidazol-2-ylmethyl)amino]-2H-1-benzopyran] | – | – | no significant changes |
| COc1ccc(N(Cc2ncc[nH]2)[C@@H]2c3cc(N)ccc3O[C@](C)(C(OC)OC)[C@H]2O)cc1 [Example 32, (2S,3S,4R)-6-amino-3,4-dihydro-2-dimethoxymethyl-3-hydroxy-2-methyl-4-[N-(4-methoxyphenyl)-N-(1H-imidazol-2-ylmethyl)amino]-2H-1-benzopyran] | – | – | no significant changes |
| COC(OC)[C@@]1(C)Oc2ccc([N+](=O)[O-])cc2[C@@H](N(Cc2ncc[nH]2)c2ccc(C)cc2C)[C@@H]1O [Example 9, (2S,3S,4R)-3,4-dihydro-2-dimethoxymethyl-3-hydroxy-2-methyl-6-nitro-4-[N-(2,4-dimethylphenyl)-N-(1H-imidazol-2-ylmethyl)amino]-2H-1-benzopyran] | – | + | no significant changes |
| COC(OC)[C@@]1(C)Oc2ccc(N)cc2[C@@H](N(Cc2ncc[nH]2)c2ccc(Br)cc2)[C@@H]1O [Example 36, (2S,3S,4R)-6-amino-3,4-dihydro-2-dimethoxymethyl-3-hydroxy-2-methyl-4-[N-(4-bromophenyl)-N-(1H-imidazol-2-ylmethyl)amino]-2H-1-benzopyran] | – | – | no significant changes |
| COC(OC)[C@]1(C)Oc2ccc(N)cc2[C@H](N(Cc2ncc[nH]2)c2cccc(C)c2C)[C@H]1O [Example 27, (2R,3R,4S)-6-amino-3,4-dihydro-2-dimethoxymethyl-3-hydroxy-2-methyl-4-[N-(2,3-dimethylphenyl)-N-(1H-imidazol-2-ylmethyl)amino]-2H-1-benzopyran] | – | +/− | no significant changes |
| COC(OC)[C@@]1(C)Oc2ccc([N+](=O)[O-])cc2[C@@H](N(Cc2ncc[nH]2)c2ccc(Br)cc2)[C@@H]1O [Example 8, (2S,3S,4R)-3,4-dihydro-2-dimethoxymethyl-3-hydroxy-2-methyl-6-nitro-4-[N-(4-bromophenyl)-N-(1H-imidazol-2-ylmethyl)amino]-2H-1-benzopyran] | – | + | no significant changes |
| COC(OC)[C@]1(C)Oc2ccc([N+](=O)[O-])cc2[C@H](N(Cc2ncc[nH]2)c2ccccc2C(C)C)[C@H]1O [Example 17, (2R,3R,4S)-3,4-dihydro-2-dimethoxymethyl-3-hydroxy-2-methyl-6-nitro-4-[N-(2-isopropylphenyl)-N-(1H-imidazol-2-ylmethyl)amino]-2H-1-benzopyran] | – | – | no significant changes |
| COC(OC)[C@]1(C)Oc2ccc([N+](=O)[O-])cc2[C@H](N(Cc2ncc[nH]2)c2ccc(OC(F)(F)F)cc2)[C@H]1O [Example 21, (2R,3R,4S)-3,4-dihydro-2-dimethoxymethyl-3-hydroxy-2-methyl-6-nitro-4-[N-(4-trifluoromethoxyphenyl)-N-(1H-imidazol-2-ylmethyl)amino]-2H-1-benzopyran] | – | – | no significant changes |
| COC(OC)[C@@]1(C)Oc2ccc(N)cc2[C@@H](N(Cc2ncc[nH]2)c2ccc(F)cc2)[C@@H]1O [Example 37, (2S,3S,4R)-6-amino-3,4-dihydro-2-dimethoxymethyl-3-hydroxy-2-methyl-4-[N-(4-fluorophenyl)-N-(1H-imidazol-2-ylmethyl)amino]-2H-1-benzopyran] | – | – | no significant changes |
| COC(OC)[C@@]1(C)Oc2ccc(N)cc2[C@@H](N(Cc2ncc[nH]2)c2ccc(OC(F)(F)F)cc2)[C@@H]1O [Example 35, (2S,3S,4R)-6-amino-3,4-dihydro-2-dimethoxymethyl-3-hydroxy-2-methyl-4-[N-(4-trifluoromethoxyphenyl)-N-(1H-imidazol-2-ylmethyl)amino]-2H-1-benzopyran] | – | – | no significant changes |
| COC(OC)[C@@]1(C)Oc2ccc(N)cc2[C@@H](N(Cc2ncc[nH]2)c2ccccc2C(C)C)[C@@H]1O [Example 34, (2S,3S,4R)-6-amino-3,4-dihydro-2-dimethoxymethyl-3-hydroxy-2-methyl-4-[N-(2-isopropylphenyl)-N-(1H-imidazol-2-ylmethyl)amino]-2H-1-benzopyran] | – | – | no significant changes |
| COC(OC)[C@@]1(C)Oc2ccc(N)cc2[C@@H](N(Cc2ncc[nH]2)c2ccc(C)cc2C)[C@@H]1O [Example 33, (2S,3S,4R)-6-amino-3,4-dihydro-2-dimethoxymethyl-3-hydroxy-2-methyl-4-[N-(2,4-dimethylphenyl)-N-(1H-imidazol-2-ylmethyl)amino]-2H-1-benzopyran] | – | – | no significant changes |
| COC(OC)[C@@]1(C)Oc2ccc([N+](=O)[O-])cc2[C@@H](N(Cc2ncc[nH]2)c2ccc(F)cc2)[C@@H]1O [Example 15, (2S,3S,4R)-3,4-dihydro-2-dimethoxymethyl-3-hydroxy-2-methyl-6-nitro-4-[N-(4-fluorophenyl)-N-(1H-imidazol-2-ylmethyl)amino]-2H-1-benzopyran] | – | – | no significant changes |
| COC(OC)[C@@]1(C)Oc2ccc([N+](=O)[O-])cc2[C@@H](N(Cc2ncc[nH]2)c2cccc(C)c2C)[C@@H]1O [Example 11, (2S,3S,4R)-3,4-dihydro-2-dimethoxymethyl-3-hydroxy-2-methyl-6-nitro-4-[N-(2,3-dimethylphenyl)-N-(1H-imidazol-2-ylmethyl)amino]-2H-1-benzopyran] | – | – | no significant changes |
| COc1ccccc1N(Cc1ncc[nH]1)[C@@H]1c2cc([N+](=O)[O-])ccc2O[C@](C)(C(OC)OC)[C@H]1O [Example 16, (2S,3S,4R)-3,4-dihydro-2-dimethoxymethyl-3-hydroxy-2-methyl-6-nitro-4-[N-(2-methoxyphenyl)-N-(1H-imidazol-2-ylmethyl)amino]-2H-1-benzopyran] | – | – | no significant changes |
| COC(OC)[C@@]1(C)Oc2ccc(N)cc2[C@@H](N(Cc2ncc[nH]2)c2cccc(C)c2C)[C@@H]1O [Example 30, (2S,3S,4R)-6-amino-3,4-dihydro-2-dimethoxymethyl-3-hydroxy-2-methyl-4-[N-(2,3-dimethylphenyl)-N-(1H-imidazol-2-ylmethyl)amino]-2H-1-benzopyran] | – | – | no significant changes |
| COC(OC)[C@@]1(C)Oc2ccc([N+](=O)[O-])cc2[C@@H](N(Cc2ncc[nH]2)c2cccc(Cl)c2)[C@@H]1O [Example 20, (2S,3S,4R)-3,4-dihydro-2-dimethoxymethyl-3-hydroxy-2-methyl-6-nitro-4-[N-(3-chlorophenyl)-N-(1H-imidazol-2-ylmethyl)amino]-2H-1-benzopyran] | – | – | no significant changes |
| COc1ccccc1N(Cc1ncc[nH]1)[C@H]1c2cc([N+](=O)[O-])ccc2O[C@@](C)(C(OC)OC)[C@@H]1O [Example 18, (2R,3R,4S)-3,4-dihydro-2-dimethoxymethyl-3-hydroxy-2-methyl-6-nitro-4-[N-(2-methoxyphenyl)-N-(1H-imidazol-2-ylmethyl)amino]-2H-1-benzopyran] | – | – | no significant changes |
